Assay results reported in PubChem BioAssay AID2060889 (Molecular Pharmacology Branch, DTP, NCI, 2025).
pIC50: −log10 of the molar value.

System: LG0567-F671-PDC complex spheroids viability
Assay: Anticancer human tumor LG0567-F671-PDC patient-derived lung adenocarcinoma cell line growth inhibition [RAS]
Conditions: for pIC50: curve of first compound; for viability, T/C: stronger effect = lower value
Outline: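 Tumour cells grown as complex spheroids with HUVEC endothelial cells and mesenchymal stem cells, treated with RAS pathway inhibitor combinations. Each agent spans half-log steps from near clinical Cmax, or 10 microM where Cmax is unknown.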
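Also: spheroids exposed to compound for seven days before readout.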
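For pIC50 in this document: luminescence signal used as a proxy for viable cells.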

CC(=O)OC12COC1CC(O)C1(C)C(=O)C(O)C3=C(C)C(OC(=O)C(O)C(NC(=O)OC(C)(C)C)c4ccccc4)CC(O)(C(OC(=O)c4ccccc4)C21)C3(C)C (centres undefined) + CCn1c(-c2cc(N3CCN(C)CC3)cnc2C(C)OC)c2c3cc(ccc31)-c1csc(n1)CC(NC(=O)C1CC1C)C(=O)N1CCCC(N1)C(=O)OCC(C)(C)C2
pIC50 (second compound 0.000949 µM): > 7.50 | pIC50 (second compound 0.003 µM): > 7.50 | pIC50 (second compound 0.00949 µM): > 7.50 | pIC50 (second compound 0.03 µM): > 7.50 | pIC50 (second compound 0.0949 µM): > 7.50 | pIC50 (second compound 0.3 µM): > 7.50 | viability, T/C (second compound 0.000949 µM, first compound 0.0316 µM): 17.3% | viability, T/C (second compound 0.000949 µM, first compound 0.1 µM): 14.6% | viability, T/C (second compound 0.000949 µM, first compound 0.316 µM): 16.6% | viability, T/C (second compound 0.000949 µM, first compound 1 µM): 20.3% | viability, T/C (second compound 0.000949 µM, first compound 3.16 µM): 21.7% | viability, T/C (second compound 0.000949 µM, first compound 10 µM): 15.3% | viability, T/C (second compound 0.003 µM, first compound 0.0316 µM): 8.54% | viability, T/C (second compound 0.003 µM, first compound 0.1 µM): 7.86% | viability, T/C (second compound 0.003 µM, first compound 0.316 µM): 8.72% | viability, T/C (second compound 0.003 µM, first compound 1 µM): 8.18% | viability, T/C (second compound 0.003 µM, first compound 3.16 µM): 8.46% | viability, T/C (second compound 0.003 µM, first compound 10 µM): 5.71% | viability, T/C (second compound 0.00949 µM, first compound 0.0316 µM): 5.57% | viability, T/C (second compound 0.00949 µM, first compound 0.1 µM): 4.28% | viability, T/C (second compound 0.00949 µM, first compound 0.316 µM): 4.95% | viability, T/C (second compound 0.00949 µM, first compound 1 µM): 3.96% | viability, T/C (second compound 0.00949 µM, first compound 3.16 µM): 4.72% | viability, T/C (second compound 0.00949 µM, first compound 10 µM): 3.03% | viability, T/C (second compound 0.03 µM, first compound 0.0316 µM): 3.18% | viability, T/C (second compound 0.03 µM, first compound 0.1 µM): 3.69% | viability, T/C (second compound 0.03 µM, first compound 0.316 µM): 3.02% | viability, T/C (second compound 0.03 µM, first compound 1 µM): 3.03% | viability, T/C (second compound 0.03 µM, first compound 3.16 µM): 2.9% | viability, T/C (second compound 0.03 µM, first compound 10 µM): 1.92% | viability, T/C (second compound 0.0949 µM, first compound 0.0316 µM): 2.46% | viability, T/C (second compound 0.0949 µM, first compound 0.1 µM): 2.37% | viability, T/C (second compound 0.0949 µM, first compound 0.316 µM): 2.22% | viability, T/C (second compound 0.0949 µM, first compound 1 µM): 2.27% | viability, T/C (second compound 0.0949 µM, first compound 3.16 µM): 2.34% | viability, T/C (second compound 0.0949 µM, first compound 10 µM): 1.6% | viability, T/C (second compound 0.3 µM, first compound 0.0316 µM): 2.92% | viability, T/C (second compound 0.3 µM, first compound 0.1 µM): 1.92% | viability, T/C (second compound 0.3 µM, first compound 0.316 µM): 1.85% | viability, T/C (second compound 0.3 µM, first compound 1 µM): 1.89% | viability, T/C (second compound 0.3 µM, first compound 3.16 µM): 2.06% | viability, T/C (second compound 0.3 µM, first compound 10 µM): 1.66%

CCc1c2c(nc3ccc(O)cc13)-c1cc3c(c(=O)n1C2)COC(=O)[C@]3(O)CC + CCn1c(-c2cc(N3CCN(C)CC3)cnc2C(C)OC)c2c3cc(ccc31)-c1csc(n1)CC(NC(=O)C1CC1C)C(=O)N1CCCC(N1)C(=O)OCC(C)(C)C2
pIC50 (second compound 0.000949 µM): > 9.02 | pIC50 (second compound 0.003 µM): > 9.02 | pIC50 (second compound 0.00949 µM): > 9.02 | pIC50 (second compound 0.03 µM): > 9.02 | pIC50 (second compound 0.0949 µM): > 9.02 | pIC50 (second compound 0.3 µM): > 9.02 | viability, T/C (second compound 0.000949 µM, first compound 0.000949 µM): 25.9% | viability, T/C (second compound 0.000949 µM, first compound 0.003 µM): 19.2% | viability, T/C (second compound 0.000949 µM, first compound 0.00949 µM): 16.8% | viability, T/C (second compound 0.000949 µM, first compound 0.03 µM): 9.71% | viability, T/C (second compound 0.000949 µM, first compound 0.0949 µM): 6.4% | viability, T/C (second compound 0.000949 µM, first compound 0.3 µM): 3.66% | viability, T/C (second compound 0.003 µM, first compound 0.000949 µM): 13.2% | viability, T/C (second compound 0.003 µM, first compound 0.003 µM): 10.5% | viability, T/C (second compound 0.003 µM, first compound 0.00949 µM): 8.66% | viability, T/C (second compound 0.003 µM, first compound 0.03 µM): 6.1% | viability, T/C (second compound 0.003 µM, first compound 0.0949 µM): 4.22% | viability, T/C (second compound 0.003 µM, first compound 0.3 µM): 2.19% | viability, T/C (second compound 0.00949 µM, first compound 0.000949 µM): 6.6% | viability, T/C (second compound 0.00949 µM, first compound 0.003 µM): 5.95% | viability, T/C (second compound 0.00949 µM, first compound 0.00949 µM): 4.92% | viability, T/C (second compound 0.00949 µM, first compound 0.03 µM): 3.8% | viability, T/C (second compound 0.00949 µM, first compound 0.0949 µM): 2.17% | viability, T/C (second compound 0.00949 µM, first compound 0.3 µM): 1.39% | viability, T/C (second compound 0.03 µM, first compound 0.000949 µM): 4.12% | viability, T/C (second compound 0.03 µM, first compound 0.003 µM): 3.96% | viability, T/C (second compound 0.03 µM, first compound 0.00949 µM): 3.68% | viability, T/C (second compound 0.03 µM, first compound 0.03 µM): 2.7% | viability, T/C (second compound 0.03 µM, first compound 0.0949 µM): 1.39% | viability, T/C (second compound 0.03 µM, first compound 0.3 µM): 0.64% | viability, T/C (second compound 0.0949 µM, first compound 0.000949 µM): 3.25% | viability, T/C (second compound 0.0949 µM, first compound 0.003 µM): 3.49% | viability, T/C (second compound 0.0949 µM, first compound 0.00949 µM): 2.57% | viability, T/C (second compound 0.0949 µM, first compound 0.03 µM): 1.66% | viability, T/C (second compound 0.0949 µM, first compound 0.0949 µM): 1.51% | viability, T/C (second compound 0.0949 µM, first compound 0.3 µM): 0.39% | viability, T/C (second compound 0.3 µM, first compound 0.000949 µM): 2.45% | viability, T/C (second compound 0.3 µM, first compound 0.003 µM): 2.81% | viability, T/C (second compound 0.3 µM, first compound 0.00949 µM): 2.34% | viability, T/C (second compound 0.3 µM, first compound 0.03 µM): 1.76% | viability, T/C (second compound 0.3 µM, first compound 0.0949 µM): 0.8% | viability, T/C (second compound 0.3 µM, first compound 0.3 µM): 0.31%
